Data taken from publication PMC9571594, “Development of Semisynthetic Apoptosis-Inducing Agents Based on Natural Phenolic Acids Scaffold: Design, Synthesis and In-Vitro Biological Evaluation” (Molecules, 2022).
In brackets after ≈: the same amount, converted by molar mass. Where two headings read alike, the source gives them in different places.

Assays:
HepG2 cells = test: MTT cell viability assay, HepG2; type: cell-based, human
Experimental: (§1) MCF-7 cells (Human breast adenocarcinoma), HepG2 (human hepatocellular carcinoma), A549 (human lung adenocarcinoma), Caco-2 (colon carcinoma), PANC-1 (human pancreatic cancer), and Vero cells (derived from normal kidney cells) were supplied by (Holding Company for Biological Products and Vaccines VACSERA; Giza, Egypt). The cells were cultured in PRMI 1640 medium (Lonza, Switzerland) supplemented with 10% fetal bovine serum (Gibco), 1% penicillin and 1% streptomycin (Sigma Aldrich, Saint Louis, MO, USA) at 37 °C under an atmosphere of 5% CO2 and 95% air.
(§2) The effect of parent compounds and their derivatives were assessed by (3-(4,5-dimethylthiazol-2-yl)-2,5diphenyl-tetrazolium bromide) MTT assay. […] After a merged sheet of cells developed, the growth media was decanted from the 96-well microtiter and refilled with different concentrations of compounds (µg/mL), and the plate was incubated at 37 °C for 48 h to minimize exposure to the dissolving agent (Supporting Information).
(§3) MTT solution (BIO BASIC CANADA INC) was prepared [5 mg/mL in phosphate buffered saline (PBS)], added to each well and incubated for 4 h, then after removing the media, 200 μL of DMSO was added to each well to solubilize the formazan crystals and the optical density of the formazan product was measured at 560 nm using microplate reader (mindray, MR-96A). The results were calculated as the mean of the three independent experiments. […]
(§4) Determination of sample cytotoxicity on cells (MTT protocol) […]
(§5) well) and incubated at 37°C for 24 hours to develop a complete monolayer sheet.
(§6) 2- Growth medium was decanted from 96 well micro titer plates after confluent sheet of cells were formed, cell monolayer was washed twice with wash media.
(§7) 3- two-fold dilutions of tested sample was made in RPMI medium with 2% serum […]
(§8) 4- 0.1 ml of each dilution was tested in different wells leaving 3 wells as control, receiving only maintenance medium.
(§9) 5- Plate was incubated at 37°C and examined. Cells were checked for any physical signs of toxicity, e.g. partial or complete loss of the monolayer, rounding, shrinkage, […]
(§10) 6- MTT solution was prepared (5mg/ml in PBS) (BIO BASIC CANADA INC).
(§11) 8- 20ul MTT solution were added to each well. Place on a shaking table, 150rpm for 5 minutes, to thoroughly mix the MTT into the media.
(§12) 10) Dump off the media. (dry plate on paper towels to remove residue if necessary. […] 9 ش - ايلعلا هبضهلا - مطقملا / ىسيئرلا لمعملا […]

[1] = MTT cell viability assay on normal Vero cells (selectivity); type: cell-based; conditions: African green monkey, Vero cells (normal kidney cells)
Experimental: (§13) MCF-7 cells (Human breast adenocarcinoma), HepG2 (human hepatocellular carcinoma), A549 (human lung adenocarcinoma), Caco-2 (colon carcinoma), PANC-1 (human pancreatic cancer), and Vero cells (derived from normal kidney cells) were supplied by (Holding Company for Biological Products and Vaccines VACSERA; Giza, Egypt).
as §2, §3, §4, §5, §6, §7, §8, §9, §10, §11
(§14) 10) Dump off the media. (dry plate on paper towels to remove residue if necessary. […]

Vero normal cell line = test: as above; type: cell-based
Experimental: as §13, §2, §3, §4, §5, §6, §7, §8, §9, §10, §11, §14

Caco-2 cells = test: Annexin V-FITC/PI apoptosis assay by flow cytometry; type: cell-based; design: key: % of cells; conditions: annexin-V FITC/PI staining, 24h
Experimental: In order to determine the percentage of viable, apoptotic and necrotic cells after treatment with our compounds, double-staining with fluorescein isothiocyanate (FITC) and PI was performed. Annexin V-FITC Apoptosis Detection Kit (BioVision, CA, USA) was used. Briefly, cultured Caco-2 were treated with the tested compounds or DMSO for 24h. Cells were then collected by centrifugation at 2000 rpm for 5 min, and the pellet was washed with PBS then centrifuged again at 2000 rpm for 5 min then resuspended in 500μL of the kit’s binding buffer before adding the Annexin V-FITC and PI. The cells were then incubated at room temperature in the dark for 5 min. Annexin V-FITC binding was measured using FACS Calibur flow cytometer (BD biosciences, USA) (Ex = 488 nm, Em = 533 nm, FL1 filter for annexin and FL2 filter for PI).

PANC-1 cells = test: MTT cell viability assay, PANC-1; type: cell-based, human
Experimental: as §1, §2, §3, §4, §5, §6, §7, §8, §9, §10, §11, §12

A549 cells = test: MTT cell viability assay, A549; type: cell-based, human
Experimental: as §1, §2, §3, §4, §5, §6, §7, §8, §9, §10, §11, §12

MCF-7 cells = test: MTT cell viability assay, MCF-7; type: cell-based, Human; conditions: Homo sapiens, MCF7; MTT, 48 h, average of triplicates; read-out: IC50 (μM) ± SD MCF-7
Experimental: as §1, §2, §3, §4, §5, §6, §7, §8, §9, §10, §11, §12

O=C(O)/C=C/c1ccc(O)c(O)c1 [Compound 1, Caffeic acid]
Toxicity % (HepG2 cells; HepG2, 15.625 ug/ml): 0.202% | Toxicity % (HepG2 cells; HepG2, 31.25 ug/ml): 0.101% | Toxicity % (HepG2 cells; HepG2, 62.5 ug/ml): 0.5051% | Toxicity % (HepG2 cells; HepG2, 125 ug/ml): 13.64% | Toxicity % (HepG2 cells; HepG2, 250 ug/ml): 72.12% | Toxicity % (HepG2 cells; HepG2, 500 ug/ml): 83.94% | IC50 (HepG2 cells; Homo sapiens, HepG2, MTT, 48 h, average of triplicates, read-out: IC50 (μM) ± SD HepG2): 1030 µM | viability at 15.625 µg/mL (HepG2 cells; Homo sapiens, HepG2, 15.625 ug/ml): 99.8% | viability at 31.25 µg/mL (HepG2 cells; Homo sapiens, HepG2, 31.25 ug/ml): 99.9% | viability at 62.5 µg/mL (HepG2 cells; Homo sapiens, HepG2, 62.5 ug/ml): 99.5% | viability at 125 µg/mL (HepG2 cells; Homo sapiens, HepG2, 125 ug/ml): 86.4% | viability at 250 µg/mL (HepG2 cells; Homo sapiens, HepG2, 250 ug/ml): 27.9% | viability at 500 µg/mL (HepG2 cells; Homo sapiens, HepG2, 500 ug/ml): 16.1% | IC50 (HepG2 cells; Homo sapiens, HepG2, MTT report T-4-019-5, Conc. ug/ml, read-out: IC50): 201 µg/mL | viability at 48 h, 15.625 ug/ml ([1]; 15.625 ug/ml): 99.1% | viability at 48 h, 31.25 ug/ml ([1]; 31.25 ug/ml): 99% | viability at 48 h, 62.5 ug/ml ([1]; 62.5 ug/ml): 99.3% | viability at 48 h, 125 ug/ml ([1]; 125 ug/ml): 63.6% | viability at 48 h, 250 ug/ml ([1]; 250 ug/ml): 22.9% | viability at 48 h, 500 ug/ml ([1]; 500 ug/ml): 18.1% | Toxicity % (Vero normal cell line; 15.625 ug/ml): 0.8516% | Toxicity % (Vero normal cell line; 31.25 ug/ml): 0.9732% | Toxicity % (Vero normal cell line; 62.5 ug/ml): 0.7299% | Toxicity % (Vero normal cell line; 125 ug/ml): 36.37% | Toxicity % (Vero normal cell line; 250 ug/ml): 77.13% | Toxicity % (Vero normal cell line; 500 ug/ml): 81.87% | IC50 (Vero normal cell line; Chlorocebus sabaeus, MTT report T-4-019-5, Conc. ug/ml): 176 µg/mL (≈ 977 µM) | Apoptosis Total (Caco-2 cells): 11.31 | Early Apoptosis (Caco-2 cells): 3.41 | Late Apoptosis (Caco-2 cells): 5.98 | Necrosis (Caco-2 cells): 1.92 | IC50 (PANC-1 cells; Homo sapiens, PANC-1, MTT, 48 h, average of triplicates, read-out: IC50 (μM) ± SD PANC-1): 1290 µM | viability at 15.625 µg/mL (PANC-1 cells; Homo sapiens, PANC-1, Panc1, 15.625 ug/ml): 100% | viability at 31.25 µg/mL (PANC-1 cells; Homo sapiens, PANC-1, Panc1, 31.25 ug/ml): 101% | viability at 62.5 µg/mL (PANC-1 cells; Homo sapiens, PANC-1, Panc1, 62.5 ug/ml): 99.8% | viability at 125 µg/mL (PANC-1 cells; Homo sapiens, PANC-1, Panc1, 125 ug/ml): 91.8% | viability at 250 µg/mL (PANC-1 cells; Homo sapiens, PANC-1, Panc1, 250 ug/ml): 48.3% | viability at 500 µg/mL (PANC-1 cells; Homo sapiens, PANC-1, Panc1, 500 ug/ml): 29.7% | IC50 (PANC-1 cells; Homo sapiens, PANC-1, Panc1, MTT report T-4-019-5, Conc. ug/ml, read-out: IC50): 251 µg/mL | Toxicity % (PANC-1 cells; Panc1, 15.625 ug/ml): 0% | Toxicity % (PANC-1 cells; Panc1, 31.25 ug/ml): 0% | Toxicity % (PANC-1 cells; Panc1, 62.5 ug/ml): 0.1812% | Toxicity % (PANC-1 cells; Panc1, 125 ug/ml): 8.243% | Toxicity % (PANC-1 cells; Panc1, 250 ug/ml): 51.72% | Toxicity % (PANC-1 cells; Panc1, 500 ug/ml): 70.29% | Toxicity % (A549 cells; A549, 15.625 ug/ml): 0.7435% | Toxicity % (A549 cells; A549, 31.25 ug/ml): 0.1239% | Toxicity % (A549 cells; A549, 62.5 ug/ml): 0.9913% | Toxicity % (A549 cells; A549, 125 ug/ml): 3.841% | Toxicity % (A549 cells; A549, 250 ug/ml): 52.91% | Toxicity % (A549 cells; A549, 500 ug/ml): 78.56% | IC50 (A549 cells; Homo sapiens, A549, MTT, 48 h, average of triplicates, read-out: IC50 (μM) ± SD A549): 1630 µM | viability at 15.625 µg/mL (A549 cells; Homo sapiens, A549, 15.625 ug/ml): 99.3% | viability at 31.25 µg/mL (A549 cells; Homo sapiens, A549, 31.25 ug/ml): 99.9% | viability at 62.5 µg/mL (A549 cells; Homo sapiens, A549, 62.5 ug/ml): 99% | viability at 125 µg/mL (A549 cells; Homo sapiens, A549, 125 ug/ml): 96.2% | viability at 250 µg/mL (A549 cells; Homo sapiens, A549, 250 ug/ml): 47.1% | viability at 500 µg/mL (A549 cells; Homo sapiens, A549, 500 ug/ml): 21.4% | IC50 (A549 cells; Homo sapiens, A549, MTT report T-4-019-5, Conc. ug/ml, read-out: IC50): 317 µg/mL | IC50 (MCF-7 cells): 970 µM
